Measurements from PubChem BioAssay AID850 (SRMLSC, 2007).
Calls of active or inactive are those of the source. The rule behind the calls is not given here.

Legend:
[1] = concentration-response yeast growth inhibition under permissive conditions, counter-assay for yeast lifespan-shortening chemical project (AID 850); settings: Saccharomyces cerevisiae growth inhibition, permissive control, measured here: maximum growth inhibition, stronger effect = higher value;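 note: growth read as optical density after one day of incubation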
[2] = test system: Saccharomyces cerevisiae growth inhibition, permissive control; assay: as above

| SMILES | inhibition ([1]; at 50 µM) [%] | IC50 [2] | other results |
| --- | --- | --- | --- |
| O=C(O)Cc1ccc2sc(-c3ccccc3)nc2c1 | 26.9 | > 100 µM (inactive) |  |
| CCCc1cc(C(=O)Cc2ccc(F)cc2)c(O)cc1O | 80.4 | 26.9 µM |  |
| Cc1cc(N/N=C/c2ccc(Cl)cc2Cl)nc(NCc2ccccc2)n1 | 99.2 | 31.7 µM |  |
| O=c1[nH]c2ccccc2c2nc3ccccn3c12 |  | > 100 µM (inactive) | inhibition ([1]; at 25 µM): 18.1% |
| Cc1ccc(/C=C2\C(=O)NC(=S)N(c3ccccc3F)C2=O)s1 |  | > 100 µM (inactive) | inhibition ([1]; at 6.25 µM): 29% |
| Nc1ccc(SC(F)(F)F)cc1C(=O)c1ccccc1 |  | > 100 µM (inactive) | inhibition ([1]; at 0.391 µM): 14.9% |
| Cn1cccc1C(=O)Nc1nc(-c2ccccn2)cs1 | 97.9 | 22.5 µM |  |
| CCCc1ccc(Oc2cn[nH]c2-c2ccc(O)c(C)c2O)cc1 |  | 7.32 µM | inhibition ([1]; at 12.5 µM): 101% |
| C=CCN1C(C(=O)c2ccccc2)=C(OC(=O)COc2ccccc2)c2ccccc2S1(=O)=O | 65.8 | 43.1 µM |  |
| Oc1c(Br)cc(Cl)cc1C=Nc1ccccc1Br | 100 | 7.27 µM |  |
| Cc1ccc(-c2nn3c(C)nnc3s2)cc1NC(=O)c1ccc(OC(C)C)cc1 |  | > 100 µM (inactive) | inhibition ([1]; at 0.098 µM): 17.3% |
| CCOc1ccc(/C=C/C(=O)c2cc(Br)ccc(=O)c2O)cc1 | 89.6 | 16.7 µM |  |
| CCOc1cccc(-c2nnc3n2N=C(c2cc(OC)ccc2OC)CS3)c1 |  | > 100 µM (inactive) | inhibition ([1]; at 6.25 µM): 14.8% |
| O=C(c1ccc(C(=O)N2CCCc3ccccc32)s1)N1CCCc2ccccc21 | 87 | 34.1 µM |  |
| CCc1ccc(S(=O)(=O)NCCc2cn3ccsc3n2)s1 |  | > 100 µM (inactive) | inhibition ([1]; at 25 µM): 10.4% |
| O=c1cc(-c2ccccc2)[nH]n1-c1nc2ccccc2[nH]1 | 97.3 | 13.3 µM |  |
| CCN(CC)S(=O)(=O)c1ccc(NC(=O)CSc2cccc[n+]2[O-])cc1 | 90.1 | 31.6 µM |  |
| Clc1ccc(N/N=C/c2ccncc2)cc1Cl | 21.4 | > 100 µM (inactive) |  |
| COc1ccccc1N1CCN(Cc2cc(Br)c(O)c3ncccc23)CC1 | 99.6 | 12.7 µM |  |
| Cc1cc(C)cc(N=Cc2ccc([N+](=O)[O-])s2)c1 | 100 | 12.3 µM |  |
| CCSc1ncc(/C=N/Nc2ccc(Cl)cc2)n1C | 94.7 | 6.82 µM |  |

| SMILES | inhibition ([1]; at 50 µM) [%] | IC50 [2] | other results |
| --- | --- | --- | --- |
| Cc1ccc(C(=O)Oc2ccc(Cl)c3cccnc23)cc1[N+](=O)[O-] | 73.3 | 40.6 µM |  |
| O=C(Nc1nc(-c2ccccn2)cs1)c1ccc(Cl)s1 |  | 2.09 µM | inhibition ([1]; at 12.5 µM): 91.4% |
| CCCCCCCCCCCCCCCC[n+]1ccc(/C=N/O)cc1 | 100 | 1.07 µM |  |
| O=C1c2ccccc2C(=O)c2c1cccc2N1CCOCC1 |  | > 100 µM (inactive) | inhibition ([1]; at 0.195 µM): 13.5% |
| Cc1ccc(C)c(/C=C/C(=O)c2ccccc(=O)c2O)c1 |  | 6.38 µM | inhibition ([1]; at 25 µM): 100% |
| CC(=O)NC1C(=O)N=C(SCC(=O)NC2CCCCC2)NC1=O (centres undefined) | 20.3 | > 100 µM (inactive) |  |
| CCOc1cc(/C=N/Nc2ccccc2Cl)ccc1OCC(=O)O | 99 | 9.2 µM |  |
| CCOC(=O)c1c(N)sc2c(OC)c(Br)ccc12 |  | > 100 µM (inactive) | inhibition ([1]; at 3.125 µM): 24.4% |
| CCCCCCCCCCCCCCCC[n+]1cccc2ccccc21 | 100 | 0.701 µM |  |
| CCCCOC(=O)n1c(=S)oc2cc(Cl)ccc21 | 99.8 | 14.5 µM |  |
| CCS(=O)(=O)n1nc(-c2ccc(Cl)cc2)nc1SCc1ccccc1 | 15 | > 100 µM (inactive) |  |
| COC(=O)Cc1cc(=O)n(-c2nc3ccccc3[nH]2)[nH]1 | 64.1 | 45.1 µM |  |
| Cc1nc2ccc(C(=O)O)cc2[nH]1 |  | > 100 µM (inactive) | inhibition ([1]; at 0.391 µM): 27.5% |
| O=C(O)C1C2C=CC(O2)C1C(=O)NC1CCCc2ccccc21 (centres undefined) |  | > 100 µM (inactive) | inhibition ([1]; at 6.25 µM): 10.9% |
| O=C(/C(=C/O)N=Nc1ccccc1)c1ccncc1 | 100 | 13.3 µM |  |
| CC(=O)N1CCN(c2ccc(OC[C@H]3CO[C@](Cn4ccnc4)(c4ccc(Cl)cc4Cl)O3)cc2)CC1 | 96 | 4.25 µM |  |
| C=CCn1cnc2c(c1=O)c1nc3ccccc3nc1n2/N=C/c1cc(OC)c(OC)c(OC)c1 |  | 25.8 µM | inhibition ([1]; at 25 µM): 46.7% |
| CCN1/C(=C(\O)c2ccccc2)C(=O)c2ccccc2S1(=O)=O |  | > 100 µM (inactive) | inhibition ([1]; at 1.563 µM): 19.4% |
| CCn1ncc(C2=NOC(C(=O)Nc3c(C)n(C)n(-c4ccccc4)c3=O)C2)c1C (centres undefined) |  | > 100 µM (inactive) | inhibition ([1]; at 0.195 µM): 6.76% |
| Cc1cc(Cl)ccc1N=c1ssnc1Cl |  | > 100 µM (inactive) | inhibition ([1]; at 12.5 µM): 14% |
| O=C(N/N=C/c1sc2ccccc2c1O)c1cccc2ccccc12 | 93.6 | 15.2 µM |  |

| SMILES | inhibition ([1]; at 50 µM) [%] | IC50 [2] | other results |
| --- | --- | --- | --- |
| CCOC(=O)c1c(N)sc(C(O)(C(F)(F)F)C(F)(F)F)c1-c1ccc(F)cc1 |  | > 100 µM (inactive) | inhibition ([1]; at 0.098 µM): 8.89% |
| N#Cc1ccccc1NC(=O)c1ccc2c(Cl)c3c(nc2c1)CCCC3 |  | > 100 µM (inactive) | inhibition ([1]; at 3.125 µM): 13.6% |
| Cc1ccc(-c2nc3sc(C(N)=O)c(N)c3c3c2CCCC3)cc1 | 14.4 | > 100 µM (inactive) |  |
| CC1Cc2ccccc2N1C(=O)CSC1=NCCS1 (centres undefined) |  | > 100 µM (inactive) | inhibition ([1]; at 0.781 µM): 16.7% |
| FC(F)Sc1ccc(Nc2ncnc3nc[nH]c23)cc1 |  | > 100 µM (inactive) | inhibition ([1]; at 1.563 µM): 11.9% |
| Cc1nc2cc3ccccc3cc2c(=O)[nH]1 |  | > 100 µM (inactive) | inhibition ([1]; at 0.781 µM): 13.9% |
| CCn1c(=O)c(C(=O)Nn2c(C)nc3ccccc3c2=O)c(O)c2ccccc21 |  | 13.4 µM | inhibition ([1]; at 25 µM): 99% |
| Cc1cccc(N=C2Sc3nc4c(C)c(C)ccc4cc3CN2CCN2CCOCC2)c1 | 99 | 45.1 µM |  |
| O=C(Cc1ccccc1)NCCc1cn2ccsc2n1 |  | > 100 µM (inactive) | inhibition ([1]; at 0.391 µM): 26% |
| CCSc1nc(N)nc(-c2cccs2)c1C#N | 70.4 | 35.2 µM |  |
| C=CCNC1=C(Cl)C(=O)c2ccccc2C1=O |  | > 100 µM (inactive) | inhibition ([1]; at 25 µM): 18.3% |
| O=c1[nH]c(Nc2ccccc2)cc2ccccc12 | 25.9 | > 100 µM (inactive) |  |
| Cc1ccc(N/N=C(\C#N)C(N)=S)c(C)c1 |  | > 100 µM (inactive) | inhibition ([1]; at 25 µM): 4.57% |
| COc1ccc(-c2[nH]ncc2-c2ccc(Cl)cc2)c(O)c1 |  | > 100 µM (inactive) | inhibition ([1]; at 0.781 µM): 14.4% |
| S=C(Nc1ccc(Oc2ccccc2)cc1)NC1CCCCCC1 |  | > 100 µM (inactive) | inhibition ([1]; at 0.391 µM): 19.9% |
| Cc1conc1NC(c1cccs1)c1ccc2cccnc2c1O (centres undefined) | 69.2 | 44.9 µM |  |
| O=C1OCC(CO)(CO)N=C1NNc1cc(Cl)ccc1Cl | 99.2 | 11.4 µM |  |
| Oc1cccc2ccc(/C=C/c3cccs3)nc12 | 67.1 | 37.4 µM |  |
| Cc1cc(C(=O)COC(=O)c2ccc[nH]c2=O)c(C)n1-c1ccc(F)cc1 | 12.8 | > 100 µM (inactive) |  |
| CCCCCC/C(C)=C1/SC(=S)NC1=O |  | > 100 µM (inactive) | inhibition ([1]; at 12.5 µM): 15.5% |
| O=C(Nc1nc(-c2ccccn2)cs1)C1COc2ccccc2O1 (centres undefined) | 95.2 | 11.6 µM |  |

| SMILES | inhibition ([1]; at 50 µM) [%] | IC50 [2] | other results |
| --- | --- | --- | --- |
| CN1C(=O)C2(N=c3ccccc3=N2)c2ccccc21 | 21.4 | > 100 µM (inactive) |  |
| Cc1ccc2nc(/C(C#N)=C\c3ccc([N+](=O)[O-])o3)[nH]c2c1 | 99.4 | 9.15 µM |  |
| COc1cc(C(=O)NC(=S)NNC(=O)c2cnccn2)cc(OC)c1OC | 59.3 | 23.3 µM |  |
| O=C(N/N=C\c1cccc([N+](=O)[O-])c1O)C1COc2ccccc2O1 (centres undefined) | 74.8 | 22 µM |  |
| Oc1c(CN2CCN(c3ccccn3)CC2)cc(Cl)c2cccnc12 | 95.9 | 26.5 µM |  |
| CCC(C)NC(=O)C1CCN(S(=O)(=O)c2cccc3cccnc23)CC1 (centres undefined) | 12.2 | > 100 µM (inactive) |  |
| Oc1cccc2ccc(Nc3ccccn3)nc12 | 99.4 | 12.5 µM |  |
| O=C1CCCC/C1=N\Nc1ccc(OCc2ccccc2)cc1 | 72.5 | 29.7 µM |  |
| O=C(O)c1ccc2c3c(ncnc13)-c1ccccc1C2=O | 98.6 | 5.54 µM |  |
| S=C(NCc1ccc(Cl)cc1Cl)NC1CCCCC1 | 22.8 | > 100 µM (inactive) |  |
| NNC(=O)c1ccc(COc2ccc3c(c2)CCC3)o1 | 95.3 | 15.5 µM |  |
| Cc1cc(C)cc(NS(=O)(=O)c2cnc(Cl)c(Cl)c2)c1 |  | > 100 µM (inactive) | inhibition ([1]; at 12.5 µM): 19.5% |
| CC(=O)N1c2ccccc2C2(O)N=C(C)SC12 (centres undefined) | 16 | > 100 µM (inactive) |  |
| COc1ccccc1C(=O)NNC(=S)NC(=O)c1ccco1 | 29.3 | > 100 µM (inactive) |  |
| Clc1cccc(CN2COc3c(cc(Cl)c4cccnc34)C2)c1 | 101 | 6.88 µM |  |
| CCCCNC(=S)NCc1ccc2c(c1)cc(C)n2C |  | > 100 µM (inactive) | inhibition ([1]; at 0.781 µM): 0.79% |
| COC(=O)CSCc1nc2ccccc2[nH]c1=O |  | > 100 µM (inactive) | inhibition ([1]; at 1.563 µM): 20.2% |
| OC(CNCC1CCCO1)Cn1c2ccc(Br)cc2c2cc(Br)ccc21 (centres undefined) | 98.8 | 41 µM |  |
| CC1CCCCN1S(=O)(=O)c1coc(C(N)=O)c1 (centres undefined) |  | > 100 µM (inactive) | inhibition ([1]; at 3.125 µM): 3.72% |
